Among the data in PubChem BioAssay (NCI) are GI50 and TGI values, retold here.

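Assay format: 96-well plates, 48-hour exposure. GI50: concentration for 50% inhibition of growth. At the TGI there is no net growth.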 A value given as a limit tells only on which side of the number the result lay.

Common to all, as to test: DTP human tumour cell line panel, 48 h
Test [1] has as its system RXF 393 renal.
Test [2] concerns SNB-19 CNS.
For test [3], the system named is CAKI-1 renal.
The subject of test [4] is RPMI-8226 leukemia.
Test [5] deals with A549 NSCLC.
Test [6] concerns PC-3 prostate.
Test [7] deals with SK-MEL-2 melanoma.
Test [8] has as its system M14 melanoma.
Test [9] deals with COLO 205 colon.
The subject of test [10] is SK-OV-3 ovarian.

For orientation: GI50 means the concentration that inhibits growth by half. The term TGI denotes the concentration giving total growth inhibition. Lower therefore signals greater sensitivity of the cells. On to `COc1cc(-c2nc3cc(Cl)c(Cl)cc3[nH]2)ccc1OCC(=O)N=Nc1c(O)[nH]c2ccccc12`, for which the GI50 in test [1] is 0.678 µM; in test [2] it was 0.657 µM; in test [3], 1.45 µM; in test [4], 0.645 µM; in test [5], 1.41 µM; in test [6] it was 0.533 µM. The GI50 in test [7] was 1.33 µM; in test [8], 0.328 µM; in test [9], 0.384 µM; in test [10], 1.91 µM. In addition, the TGI in [1] stood at 2.1 µM; in [2], 5.35 µM; in test [3], 2.94 µM; in test [4], 3.35 µM; in test [5] it was 14.1 µM; in test [6], 2.07 µM. The TGI in [7] was 3.27 µM; in [8] it was 1.33 µM; in test [9] it was 1.5 µM; in test [10] it was 4.39 µM.
On to `CCOc1ccc(-n2cc(-c3ccc(N(C)C)cc3)[n+]3c2CCCCC3)cc1`, for which the GI50 was 4.51 µM in test [1]; 0.452 µM in test [2]; 10.4 µM in [3]; 0.0567 µM in test [4]; 1.88 µM in [5]; 0.277 µM in [6]. The GI50 in test [7] is 0.286 µM; in [8], 1.46 µM; in test [9] it was 0.197 µM; in [10], 1.61 µM. The TGI was over 90.3 µM in test [1]; over 100 µM in test [2]; over 100 µM in test [3]; over 24.9 µM in [4]; over 100 µM in [5]; over 100 µM in [6]. Besides, the TGI in test [7] turned out to be 6.32 µM; in [8], 33.8 µM; in test [9] it was 1.73 µM; in test [10], 7.41 µM.
Take `CC(=O)O[C@H]1CC[C@@]2(C)[C@@H](CC[C@@H]3[C@@H]2CC(=O)[C@@]2(C)[C@H]3C[C@@H]3CC(C)=CC(=O)[C@@H]32)C1`: the TGI is 86.7 µM in [1]; over 100 µM in test [2]; over 100 µM in [3]; 45.8 µM in test [4]; over 100 µM in test [5]; over 100 µM in test [6]. For the same compound, the TGI in [7], in [8], in [9] and in test [10] was over 100 µM throughout.
Consider `O=C1/C=C/[C@@H](O)[C@@H]2C[C@@H](O)C[C@H]2/C=C/CCCCO1`, for which the GI50 was 0.424 µM in test [1]; 0.749 µM in test [2]; 0.785 µM in [3]; 0.248 µM in test [4]; 0.422 µM in test [5]; 0.417 µM in [6]. The GI50 in test [7] is 0.257 µM; in [8] it was 0.336 µM; in test [9] it was 0.188 µM; in test [10] it was 1.05 µM. Also, the TGI was over 100 µM in test [2]; 0.889 µM in test [4]; over 100 µM in [5]; over 100 µM in test [6]; over 100 µM in [8]; 0.393 µM in [9]. In addition, the TGI in test [10] is over 100 µM.
As to `COC(=O)c1cccc(COc2ccc([N+](=O)[O-])cc2Cl)c1`, the TGI in test [1], in test [2], in test [3], in test [4], in test [5] and in test [6] was over 100 µM in each case. Also, the TGI in test [7], in test [8], in test [9] and in test [10] was over 100 µM throughout.
Turning to `c1ccc(Oc2cnc3ccccc3n2)cc1`, the GI50 in [1] is 31.9 µM; in test [2], over 100 µM; in test [3], 10.2 µM; in test [4], over 100 µM; in test [5] it was over 100 µM; in test [6] it was over 100 µM. The GI50 in [7], in test [8], in test [9] and in test [10] was over 100 µM throughout. The TGI was over 100 µM in test [1]; over 100 µM in test [2]; 50 µM in test [3]; over 100 µM in [4]; over 100 µM in test [5]; over 100 µM in test [6]. The TGI in test [7], in [8], in [9] and in test [10] was over 100 µM in each case.
`O=P1(NCCCl)OCCC(OO)N1CCCl` (configuration not stated): the TGI in test [1] was 32.4 µM; in test [2], over 100 µM; in [3], 35.9 µM; in [4], over 100 µM; in [5], over 100 µM; in [6], over 100 µM. Moreover, the TGI was over 100 µM in [7], over 57 µM in test [8], over 57.3 µM in [9] and over 100 µM in [10].
With `Nc1nc(N)c(N=Nc2ccc([As](=O)(O)O)c(O)c2)c(N)n1`, the TGI is over 29.8 µM in test [1]; over 100 µM in test [2]; over 100 µM in test [3]; over 33.8 µM in test [4]; over 100 µM in [5]; over 100 µM in test [6]. The TGI in test [7] was over 59.9 µM; in test [8], over 100 µM; in test [9], over 100 µM; in test [10] it was over 100 µM.
As to `O=C(/C=C/c1ccco1)c1cccc(Nc2nc(Nc3ccccc3)nc(Nc3ccccc3)n2)c1`, the GI50 is 1.36 µM in test [1]; over 100 µM in test [2]; 23.2 µM in test [3]; 0.279 µM in test [4]; 0.357 µM in [5]; 5.13 µM in [6]. The GI50 in [7] is 20.5 µM; in test [8] it was 37.7 µM; in test [9], 2.29 µM; in test [10], over 86.6 µM. The TGI in [1] is 8.15 µM; in [2], over 100 µM; in [3], over 100 µM; in test [4] it was 5.47 µM; in test [5], over 38.2 µM; in test [6], over 100 µM. Besides, the TGI in test [7] is over 100 µM; in test [8], over 100 µM; in test [9], 14.3 µM; in test [10], over 100 µM.
